In article PMC9378703 (Nature Communications, 2022):

Columns and labels:
[1] = target: T1, Uba1 (Saccharomyces cerevisiae, UniProt P22515, D544E); assay: colorimetric ATPase assay (BIOMOL-GREEN phosphate, pyrophosphatase-coupled); format: biochemical; conditions: 80 μM ubiquitin, 1 mM ATP, 2 mM MgCl2, pH 7.5, 30 °C; turnover
T1 construct: residues 10-1024; N-terminal His-tag (pET28a); expressed in E. coli BL21 (DE3)

[2] = target: T2, Uba1 (Saccharomyces cerevisiae, UniProt P22515, D472A); assay: as above; format: biochemical; conditions: 80 μM ubiquitin, 1 mM ATP, 2 mM MgCl2, pH 7.5, 30 °C; turnover
T2 construct: residues 10-1024; N-terminal His-tag (pET28a); expressed in E. coli BL21 (DE3)
T2 sequence (P22515 10-1024 D472A): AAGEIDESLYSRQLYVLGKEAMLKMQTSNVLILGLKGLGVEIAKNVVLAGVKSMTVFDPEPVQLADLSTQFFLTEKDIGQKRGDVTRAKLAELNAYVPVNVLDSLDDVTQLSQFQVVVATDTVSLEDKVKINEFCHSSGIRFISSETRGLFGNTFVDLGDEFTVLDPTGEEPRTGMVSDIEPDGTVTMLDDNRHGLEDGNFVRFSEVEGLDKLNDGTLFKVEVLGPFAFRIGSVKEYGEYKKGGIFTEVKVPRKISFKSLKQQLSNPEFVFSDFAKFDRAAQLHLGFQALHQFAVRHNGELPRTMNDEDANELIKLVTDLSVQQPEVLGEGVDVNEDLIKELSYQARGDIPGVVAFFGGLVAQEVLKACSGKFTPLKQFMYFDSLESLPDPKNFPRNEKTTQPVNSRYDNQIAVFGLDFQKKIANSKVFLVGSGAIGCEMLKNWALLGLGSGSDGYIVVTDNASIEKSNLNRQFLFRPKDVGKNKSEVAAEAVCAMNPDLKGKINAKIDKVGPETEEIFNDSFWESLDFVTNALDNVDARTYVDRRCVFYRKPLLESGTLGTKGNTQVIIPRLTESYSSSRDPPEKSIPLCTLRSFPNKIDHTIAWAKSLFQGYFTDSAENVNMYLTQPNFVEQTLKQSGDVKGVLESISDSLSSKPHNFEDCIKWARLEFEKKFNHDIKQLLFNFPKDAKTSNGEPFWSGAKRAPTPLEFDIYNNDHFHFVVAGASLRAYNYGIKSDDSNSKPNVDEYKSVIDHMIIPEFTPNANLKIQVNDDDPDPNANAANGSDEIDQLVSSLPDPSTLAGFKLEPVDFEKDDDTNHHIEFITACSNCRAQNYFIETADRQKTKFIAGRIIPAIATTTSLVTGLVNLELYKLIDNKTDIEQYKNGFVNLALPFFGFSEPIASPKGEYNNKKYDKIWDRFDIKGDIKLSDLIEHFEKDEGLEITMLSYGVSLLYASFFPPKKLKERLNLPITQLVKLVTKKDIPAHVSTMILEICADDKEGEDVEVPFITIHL

T1 sequence (P22515 10-1024 D544E): as the sequence (P22515 10-1024 D472A) above, with A463D, D535E counted along it

Nc1ncnc2c1ncn2[C@@H]1O[C@H](COP(=O)(O)OP(=O)(O)OP(=O)(O)O)[C@@H](O)[C@H]1O [ATP]
colorimetric ATPase assay (BIOMOL-GREEN phosphate, pyrophosphatase-coupled) [1]: the D472A variant retained full activity as did the D472E or D544E substitutions
colorimetric ATPase assay (BIOMOL-GREEN phosphate, pyrophosphatase-coupled) [2]: the D472A variant retained full activity as did the D472E or D544E substitutions
